The text below walks through data of patent US4863944A, “Dopamine-β-hydroxylase inhibitors” (SmithKline Beckman Corporation, priority 1988, dated 1989).

The subject of data set [1] is DBH. To be noted: treated patients; Friedman et al.; significance uncertain; cited from earlier work.
In data set [2] the target is T1, dopamine-β-hydroxylase (DBH) (Bos taurus, UniProt P15101).
T1 sequence (P15101 1-610): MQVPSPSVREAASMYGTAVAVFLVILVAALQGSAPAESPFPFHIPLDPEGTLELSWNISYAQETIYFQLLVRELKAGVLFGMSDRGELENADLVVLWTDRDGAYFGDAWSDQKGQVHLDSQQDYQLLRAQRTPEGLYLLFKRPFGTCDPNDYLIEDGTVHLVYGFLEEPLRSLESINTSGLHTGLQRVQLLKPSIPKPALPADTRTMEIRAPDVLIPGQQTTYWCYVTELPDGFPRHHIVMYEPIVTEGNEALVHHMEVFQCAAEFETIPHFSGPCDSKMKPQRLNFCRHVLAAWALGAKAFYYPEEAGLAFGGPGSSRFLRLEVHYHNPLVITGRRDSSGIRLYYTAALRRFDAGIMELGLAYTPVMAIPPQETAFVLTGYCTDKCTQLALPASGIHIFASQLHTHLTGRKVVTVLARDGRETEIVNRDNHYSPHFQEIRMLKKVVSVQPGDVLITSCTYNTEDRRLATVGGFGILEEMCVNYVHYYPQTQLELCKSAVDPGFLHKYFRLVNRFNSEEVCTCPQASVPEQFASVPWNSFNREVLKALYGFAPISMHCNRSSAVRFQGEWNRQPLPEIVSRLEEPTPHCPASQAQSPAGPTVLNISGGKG
The data set can be described thus: biochemical. The conditions noted are these: in vitro; tyramine to octopamine; absorbance at 330 nm; read-out: IC50 (molar concentration of compound at which DBH activity was halved). The method, then: Octopamine was assayed following sodium periodate oxidation to p-hydroxybenzaldehyde by measuring spectrophotometric absorbance at 330 nm. […] Melting points (mp) are given in °C.

Data set [3] relates to spontaneously hypertensive rats. The data set can be described thus: in vivo activity in spontaneously hypertensive rats: electrolyte excretion, urine volume, systolic blood pressure, heart rate. To be noted: for Heart Rate 1st dose / Systolic Blood Pressure 1st dose: after 1st dose; for Heart Rate 1st dose / Systolic Blood Pressure 1st dose / Heart Rate 2nd dose / Systolic Blood Pressure 2nd dose: tail-cuff; for Heart Rate 2nd dose / Systolic Blood Pressure 2nd dose: two hours after 2nd dose; for Electrolytes Excreted K^+ / Electrolytes Excreted Na^+ / Urine Volume: urine collected for three hours. The arrangement: species or system rats (Okamoto-Aoki strain spontaneously hypertensive). The text has this: The following procedure was used to test, for in vivo activity, compounds which can be used to inhibit DBH activity in mammals, including certain illustrative compounds of the invention. The compounds wherein R is --CO2 H or --CH2 NHC6 H5, X is --H, Y is --H and n is 1 are not compounds of the invention but can be used in the method of the invention.
Male, Okamoto-Aoki strain spontaneously hypertensive rats, aged 16-20 weeks, were used for testing. The afternoon before testing, the animals were fasted and the following morning the first dose of the test compound was administered, p.o., along with a 25 ml/kg load of normal saline. The animals were then placed in metabolism cages, three per cage, and urine was collected for three hours and subsequently analyzed for sodium, potassium, and creatinine. Indirect systolic blood pressure and heart rate were measured via a tail-cuff method and the animals received an identical second does of the test compound. Two hours after the second dose, the systolic blood pressure and heart rate were again determined. Drugs were administered as a solution or suspension in normal saline with 0.02% ascorbic acid.
Three rats weighing 270-320 g were used. Each received two intraperitoneal injections, in a 24 hour period, of a dose volume of 5 mL and a dose concentration of 50 mg/kg or 25 mg/kg, in 0.9% NaCl, following a 24 hour pretreatment dose. Averaged results with control animals, three per experiment, are reported in parentheses below results of test animals.

Data set [4] relates to DBH. To be noted: cited from earlier work; for DBH inhibition / mode of DBH inhibition: result in words.
The conditions of data set [5]: result in words; cited from earlier work.
For data set [6] the following is noted: at certain concentrations; Ehrreich et al.; cited from earlier work.
For data set [7] the following is noted: result in words; Teresawa et al.; cited from earlier work.

Structures can show the parent of a compound that is named as a salt.

For the molecule `CC(C)NCC(O)COc1cccc2ccccc12` (racemic) [propanolanol], the DBH levels entry with DBH [1] is listed as “not”.

For `Br.Br.Oc1ccc(Cn2ccnc2CNc2ccccc2)cc1` [1-(4-hydroxybenzyl)-2-phenylaminomethyl imidazole dihydrobromide], the IC50 in data set [2] was more than 100 µM. Moreover, in data set [3] (dose = 50 mg/kg), the “Na^+ /K^+ ratio” value was 2.927, the “Heart Rate 1st dose” value came out at 440 beats/min, the “Systolic Blood Pressure 1st dose” value was 181 mmHg and the “Heart Rate 2nd dose” value is reported as 480 beats/min. In addition, in data set [3] (dose = 50 mg/kg), the “Systolic Blood Pressure 2nd dose” value is 175 mmHg, the “Electrolytes Excreted K^+” value is 74.27 μEq/rat, the “Electrolytes Excreted Na^+” value is recorded as 217.36 μEq/rat and the “Urine Volume” value was found to be 3 ml/rat. Further, the “in vivo activity as cardiotonic” value in data set [3] (result in words) is on record as “significant cardiotonic activity”.

Turning to `c1ccc(CNCc2nccn2Cc2ccccc2)cc1` [1-benzyl-2-benzylaminomethyl imidazole dihydrochloride], the IC50 in data set [2] came out at 100 µM.

For `O=C(O)c1ccc(CCC(Br)CBr)cn1` (centres unmarked) [5-(3,4-dibromo)butyl picolinic acid], the DBH inhibition result in the data set on DBH [4] is “DBH inhibitors”.

Consider `O=C(O)c1ccc(CCCCCl)cn1` [5-(4-chlorobutyl)picolinic acid], for which the DBH inhibition result with DBH [4] is reported as “can inhibit DBH”.

Regarding `CN(C)C(=S)SCc1ccc(C(=O)O)nc1` [5-(dimethyldithiocarbamoyl)methyl picolinic acid], the DBH inhibition entry in the data set with DBH [4] is listed as “DBH inhibitors”.

As to `NOCc1ccccc1` [Benzyloxyamine, benzyloxyamine], in the data set with DBH [4], the “mode of DBH inhibition” value was “apparently act as competitive inhibitors”.

Take `CCCCc1ccc(C(N)=O)nc1` [Bupicomide, 5-(n-butyl)picolinamide]: in the data set with DBH [4], the DBH inhibition entry is listed as “DBH inhibitor”. Further, in data set [5], the antihypertensive activity entry was “antihypertensive activity”.

For the molecule `NCCc1ccc(O)c(O)c1` [DA, dopamine], in data set [6], the vasodilator activity result is listed as “selective vasodilator activity at certain concentrations”.

`CCCCc1ccc(C(=O)O)nc1` [Fusaric acid]: in data set [7], the hepatotoxicity result is “hepatotoxic”.

Regarding `Br.Br.NCc1nccn1Cc1ccc(O)cc1` [R = CH2 NH2.2HBr, Y = OH, X = H, n = 1, 1-(4-hydroxybenzyl)-2-aminomethyl imidazole dihydrobromide], the IC50 in data set [2] was found to be 35 µM. Besides, in data set [3] (dose = 25 mg/kg), the “Na^+ /K^+ ratio” value was found to be 2.159, the “Heart Rate 1st dose” value is recorded as 420 beats/min, the “Systolic Blood Pressure 1st dose” value worked out at 161 mmHg and the “Heart Rate 2nd dose” value came to 440 beats/min. In data set [3] (dose = 25 mg/kg), the “Systolic Blood Pressure 2nd dose” value amounted to 158 mmHg, the “Electrolytes Excreted K^+” value came to 103.42 μEq/rat, the “Electrolytes Excreted Na^+” value is reported as 223.24 μEq/rat and the “Urine Volume” value amounted to 3 ml/rat. The “in vivo activity as antihypertensive” value in data set [3] (result in words) is “significant antihypertensive activity”.

Regarding `NCc1nccn1Cc1ccccc1` [R = CH2 NH2.2HCl, Y = H, X = H, n = 1, 1-benzyl-2-aminomethyl imidazole dihydrochloride], the IC50 in data set [2] turned out to be 240 µM.

Consider `O=C(O)c1nccn1CCCc1ccc(O)cc1` [R = CO2 H.1/2 H2 O, Y = OH, X = H, n = 3, 1-[3-(4-hydroxyphenyl)propyl]imidazole-2-carboxylic acid, hemihydrate], for which, in data set [2], the IC50 was found to be 70 µM. Moreover, in data set [3] (dose = 25 mg/kg), the “Na^+ /K^+ ratio” value was determined as 1.313, the “Heart Rate 1st dose” value is on record as 400 beats/min, the “Systolic Blood Pressure 1st dose” value is reported as 176 mmHg and the “Heart Rate 2nd dose” value was 440 beats/min. For the same molecule, in data set [3] (dose = 25 mg/kg), the “Systolic Blood Pressure 2nd dose” value was determined as 173 mmHg, the “Electrolytes Excreted K^+” value is 152.18 μEq/rat, the “Electrolytes Excreted Na^+” value was 199.74 μEq/rat and the “Urine Volume” value came to 6 ml/rat. Besides, in data set [3] (result in words), the “in vivo activity as diuretic” value is given as “significant diuretic activity”.

Regarding `O=C(O)c1nccn1Cc1ccccc1` [R = CO2 H.HCl, Y = H, X = H, n = 1], the IC50 in data set [2] turned out to be 11 µM. In addition, in data set [3] (dose = 50 mg/kg), the “Na^+ /K^+ ratio” value is 1.270, the “Heart Rate 1st dose” value is recorded as 440 beats/min, the “Systolic Blood Pressure 1st dose” value was determined as 211 mmHg and the “Heart Rate 2nd dose” value stood at 480 beats/min. Besides, in data set [3] (dose = 50 mg/kg), the “Systolic Blood Pressure 2nd dose” value stood at 185 mmHg, the “Electrolytes Excreted K^+” value turned out to be 214.52 μEq/rat, the “Electrolytes Excreted Na^+” value came to 272.54 μEq/rat and the “Urine Volume” value came out at 15 ml/rat. Besides, in data set [3] (result in words), the “in vivo activity as antihypertensive” value is on record as “significant in vivo activity”, the “in vivo activity as cardiotonic” value is on record as “significant in vivo activity”, the “in vivo activity as diuretic” value is “significant in vivo activity” and the “in vivo activity as natriuretic” value is on record as “significant in vivo activity”.

On to `COc1ccc(Cn2ccnc2C(=O)O)cc1` [R = CO2 H.HCl, Y = OCH3, X = H, n = 1, 1-(4-methoxybenzyl)imidazole-2-carboxylic acid hydrochloride], for which, in data set [2], the IC50 stood at 75 µM.

For the molecule `COc1ccc(CCCn2ccnc2C(=O)O)cc1` [R = CO2 H.HCl, Y = OCH3, X = H, n = 3, 1-[3-(4-methoxyphenyl)propyl]imidazole-2-carboxylic acid hydrochloride], the IC50 in data set [2] was found to be 95 µM.

In the case of `O=C(O)c1nccn1Cc1ccc(O)cc1` [R = CO2 H.HCl, Y = OH, X = H, n = 1, hydrochloride hydrate], the IC50 in data set [2] is 90 µM.

For the molecule `CC(N)(Cc1ccc(O)c(O)c1)C(=O)O` (stereo not drawn) [alpha-methyl-DOPA], the DBH levels entry with DBH [1] is listed as “lowered DBH levels”.

`NNCc1ccccc1` [benzylhydrazine]: the “mode of DBH inhibition” value in the data set with DBH [4] is on record as “apparently act as competitive inhibitors”.

For the molecule `O=C(O)c1ccc(Cc2ccc(O)cc2)cn1` [phenopicolinic acid], the “DBH inhibitory activity relative to fusaric acid” value in the data set on DBH [4] (Runti et al.) is listed as “twice the inhibitory activity of fusaric acid”. Besides, the DBH inhibition entry in the data set with DBH [4] is on record as “can inhibit DBH”.

Regarding `COC(=O)[C@H]1[C@H]2C[C@@H]3c4[nH]c5cc(OC)ccc5c4CCN3C[C@H]2C[C@@H](OC(=O)c2cc(OC)c(OC)c(OC)c2)[C@@H]1OC` [reserpine], in the data set with DBH [1], the DBH levels result is “lowered DBH levels”.
